Laboratory results from PubChem BioAssay AID1259408 (Genetic Toxicology Data Bank (GENE-TOX), 2018).
Calls of active or inactive are those of the source. The rule behind the calls is not given here.

Tested on: GENE-TOX genotoxicity assays, various organisms and cells
Assay: GENE-TOX mutagenicity studies
[1] = Species/Cell Type: Saccharomyces cerevisiae, Assay Type: Mitotic recombination or gene conversion, Assay Code: YEC-, Evaluation Type: Evaluation A (Pre-1980)
[2] = Species/Cell Type: Drosophila melanogaster, Assay Type: Sex-linked recessive lethal gene mutation, Assay Code: SRLT, Evaluation Type: Evaluation A (Pre-1980)
[3] = Species/Cell Type: Salmonella typhimurium (one or more of the five standard strains: TA98, TA100, TA1535, TA1537, and TA1538), Assay Type: Histidine reverse gene mutation, Ames assay, Assay Code: SAL+, Evaluation Type: Evaluation A (Pre-1980)
[4] = Species/Cell Type: Mammalian polychromatic erythrocytes, Assay Type: Micronucleus test, chromosome aberrations, Assay Code: MNT+, Evaluation Type: Evaluation B (Post-1980)
[5] = Species/Cell Type: Human lymphocytes, Assay Type: Sister-chromatid exchange (SCE) in vivo, Assay Code: SCY+, Evaluation Type: Evaluation B (Post-1980)

With `[CH3][Hg][CH3]` the mutagenic call (Species/Cell Type: Mammalian oocytes or early embryo, Assay Type: Chromosome aberrations in vivo, Assay Code: CYO-, Evaluation Type: Evaluation A (Pre-1980)) was “inactive; negative” and the mutagenic call (Species/Cell Type: Rodents, Sex: Male, Assay Type: Dominant lethal test, Assay Code: DLTT, Evaluation Type: Evaluation A (Pre-1980)) was “no conclusion”.
For `CN(C)c1ccc(C(=C2C=CC(=[N+](C)C)C=C2)c2c(O)c(S(=O)(=O)[O-])cc3cc(S(=O)(=O)O)ccc23)cc1`, the mutagenic call [1] was “inactive; negative”.
With `Nc1ccc2cc3ccccc3nc2c1` the mutagenic call (Species/Cell Type: Mouse (BALB/c-3T3) cells, Assay Type: Cell transformation, Assay Code: CTB-, Evaluation Type: Evaluation A (Pre-1980)) was “inactive; negative”.
`CNC(C)C1CCC(N)C(OC2C(N)CC(N)C(OC3OCC(C)(O)C(NC)C3O)C2O)O1` (configuration not stated) was tested, and the mutagenic call (Species/Cell Type: Saccharomyces cerevisiae, Assay Type: Mitotic recombination or gene conversion, Assay Code: YEH-, Evaluation Type: Evaluation A (Pre-1980)) was “inactive; negative”.
For `Cn1c([N+](=O)[O-])cnc1-c1nc2ccccc2n1CCCN1CCOCC1`, the mutagenic call [2] was “no conclusion” and the mutagenic call [1] was “inactive; negative”.
With `CC(=O)NS(=O)(=O)c1ccc(N)cc1` the mutagenic call (Species/Cell Type: Neurospora crassa, Assay Type: Aneuploidy, chromosome aberrations, Assay Code: NEN+, Evaluation Type: Evaluation A (Pre-1980)) was “active; positive” and the mutagenic call (Species/Cell Type: Saccharomyces cerevisiae, Assay Type: Aneuploidy, chromosome aberrations, Assay Code: YEN+, Evaluation Type: Evaluation A (Pre-1980)) was “active; positive”.
With `Cc1cc2c(C)c3ccccc3c(C)c2c2ccccc12` the mutagenic call (Species/Cell Type: Chinese hamster lung (V79) cells, Assay Type: Forward gene mutation at the HPRT or ouabain locus, Assay Code: V79-*, Activation: With metabolic activation, Evaluation Type: Evaluation A (Pre-1980)) was “inactive; negative”.
`Nc1ccc([N+](=O)[O-])cc1O` was tested, and the mutagenic call (Species/Cell Type: Neurospora crassa, Assay Type: Aneuploidy, chromosome aberrations, Assay Code: NEN-, Evaluation Type: Evaluation A (Pre-1980)) was “inactive; negative”, the mutagenic call (Species/Cell Type: Rodents, Sex: Male, Assay Type: Dominant lethal test, Assay Code: DLT-, Evaluation Type: Evaluation A (Pre-1980)) was “inactive; negative” and the mutagenic call [3] was “active; positive”.
For `CC(N)Cc1ccccc1` (configuration not stated), the mutagenic call (Species/Cell Type: Drosophila melanogaster, Assay Type: Aneuploidy, sex chromosome gain, chromosome aberrations, Assay Code: DAGT, Evaluation Type: Evaluation A (Pre-1980)) was “no conclusion”, the mutagenic call (Species/Cell Type: Drosophila melanogaster, Assay Type: Aneuploidy, whole sex chromosome loss, chromosome aberrations, Assay Code: DACT, Evaluation Type: Evaluation A (Pre-1980)) was “no conclusion” and the mutagenic call [2] was “no conclusion”. The mutagenic call [4] was “active; positive”.
In the case of `O=c1[nH]c(=O)[nH]c(=O)[nH]1`, the mutagenic call (Species/Cell Type: Nonhuman, Assay Type: Sister-chromatid exchange (SCE) in vitro, Assay Code: SC2-, Evaluation Type: Evaluation B (Post-1980)) is reported as “inactive; negative”.
For `[As]`, the mutagenic call [5] was “active; positive”.
For `O=C(NO)c1ccc2ccccc2c1`, the mutagenic call (Species/Cell Type: Nonhuman, Assay Type: Sister-chromatid exchange (SCE) in vitro, Assay Code: SC2+D, Dose Response: With dose response, Evaluation Type: Evaluation B (Post-1980)) was “active; positive” and the mutagenic call [3] was “active; positive”.
With `O=[N+]([O-])c1ccc(-c2nc(N3CCOCC3)c3ccccc3n2)s1` the mutagenic call [3] was “active; positive”.
For `O[C@@H]1[C@@H]2O[C@@H]2c2cc3c(ccc4ccccc43)cc2[C@H]1O`, the mutagenic call (Species/Cell Type: Chinese hamster lung (V79) cells, Assay Type: Forward gene mutation at the HPRT or ouabain locus, Assay Code: V79+, Evaluation Type: Evaluation A (Pre-1980)) was “active; positive” and the mutagenic call [3] was “active; positive”.
In the case of `Cc1cc(Cl)ccc1OCC(=O)O`, the mutagenic call (Species/Cell Type: Drosophila melanogaster, Assay Type: Aneuploidy, sex chromosome gain, chromosome aberrations, Assay Code: DAG-M-F, Evaluation Type: Evaluation A (Pre-1980)) is reported as “inactive; negative”, the mutagenic call (Species/Cell Type: Drosophila melanogaster, Assay Type: Aneuploidy, whole sex chromosome loss, chromosome aberrations, Assay Code: DAC-M-F, Evaluation Type: Evaluation A (Pre-1980)) is reported as “inactive; negative” and the mutagenic call (Species/Cell Type: Drosophila melanogaster, Assay Type: Sex-linked recessive lethal gene mutation, Assay Code: SRL+, Evaluation Type: Evaluation A (Pre-1980)) is reported as “active; positive”. For the same compound, the mutagenic call (Species/Cell Type: Saccharomyces cerevisiae, Assay Type: Reverse gene mutation, Assay Code: YER+, Evaluation Type: Evaluation A (Pre-1980)) was “active; positive” and the mutagenic call (Species/Cell Type: Salmonella typhimurium, Serratia marcesens, Assay Type: Forward and reverse gene mutation, host-mediated assay, Assay Code: HM2-, Evaluation Type: Evaluation A (Pre-1980)) was “inactive; negative”.
`CC1=C(C(C)O)c2cc3nc(cc4[nH]c(cc5[nH]c(cc1n2)c(C)c5CCC(=O)O)c(CCC(=O)O)c4C)C(C(C)O)=C3C` (configuration not stated) was tested, and the mutagenic call (Species/Cell Type: Human, Assay Type: Sister-chromatid exchange (SCE) in vitro, Assay Code: SC1T, Evaluation Type: Evaluation B (Post-1980)) was “no conclusion”.
For `FC(F)F`, the mutagenic call [2] was “no conclusion”.
In the case of `Nc1ccc(N=Nc2ccc(S(=O)(=O)O)cc2)c(N)c1`, the mutagenic call (Species/Cell Type: Salmonella typhimurium (one or more of the five standard strains: TA98, TA100, TA1535, TA1537, and TA1538), Assay Type: Histidine reverse gene mutation, Ames assay, Assay Code: SAL+*, Activation: With metabolic activation, Evaluation Type: Evaluation A (Pre-1980)) is reported as “active; positive”.
With `CCC1(c2ccccc2)C(=O)NC(=O)NC1=O` the mutagenic call [5] was “active; positive”, the mutagenic call [4] was “active; positive” and the mutagenic call (Species/Cell Type: Mammalian polychromatic erythrocytes, Assay Type: Micronucleus test, chromosome aberrations, Assay Code: MNTT, Evaluation Type: Evaluation A (Pre-1980)) was “no conclusion”. For the same compound, the mutagenic call (Species/Cell Type: Mouse, Sex: Male, Assay Type: Sperm morphology, Assay Code: SPI-, Evaluation Type: Evaluation A (Pre-1980)) was “inactive; negative” and the mutagenic call (Species/Cell Type: Syrian hamster embryo (SHE) cells, Assay Type: Cell transformation, clonal assay, Assay Code: CTC-, Evaluation Type: Evaluation A (Pre-1980)) was “inactive; negative”.
